Test system: panel of nearly 500 cancer cell lines
Assay: Cancer Cell Line Encyclopedia profiling, 3-day CellTiter-Glo
Type: cell-based
Parameters: Amax: unit not given here

CN(C)C(=O)c1cc2cnc(Nc3ccc(N4CCNCC4)cn3)nc2n1C1CCCC1 [Ribociclib, 7-cyclopentyl-2-(5-piperazin-1-yl-pyridin-2-ylamino)-7H-pyrrolo[2,3-d]pyrimidine-6-carboxylic acid dimethylamide]
Amax (8mgba (central_nervous_system)): 0.325
Amax (769p (kidney)): -56.5199
Amax (786o (kidney)): 2.199
Amax (8305c (thyroid)): -43.2823
Amax (8505c (thyroid)): -10.3812
EC50 (CMK-86): 0.195 µM
IC50 (CMK-86): 0.513 µM
EC50 (COLO 699): 0.00254 µM
IC50 (COLO 699): > 8 µM
EC50 (COV318): > 8 µM
IC50 (COV318): > 8 µM
EC50 (COV504): > 8 µM
IC50 (COV504): > 8 µM
EC50 (Fu97): 0.483 µM
IC50 (Fu97): > 8 µM
EC50 (GLC82): > 8 µM
IC50 (GLC82): > 8 µM
EC50 (HCC15): > 8 µM
IC50 (HCC15): > 8 µM
EC50 (HEC-6): > 8 µM
IC50 (HEC-6): > 8 µM
EC50 (HEC-251): > 8 µM
IC50 (HEC-251): > 8 µM
EC50 (HEY A8): 2.2 µM
IC50 (HEY A8): > 8 µM
EC50 (Homo sapiens, 8-MG-BA): > 8 µM
IC50 (Homo sapiens, 8-MG-BA): > 8 µM
EC50 (Homo sapiens, 22Rv1): 0.99 µM
IC50 (Homo sapiens, 22Rv1): 3.81 µM
EC50 (Homo sapiens, 639-V): > 8 µM
IC50 (Homo sapiens, 639-V): > 8 µM
EC50 (Homo sapiens, 769-P): 1.14 µM
IC50 (Homo sapiens, 769-P): 4.43 µM
EC50 (Homo sapiens, 786-0): > 8 µM
IC50 (Homo sapiens, 786-0): > 8 µM
EC50 (Homo sapiens, 8305C): > 8 µM
IC50 (Homo sapiens, 8305C): > 8 µM
EC50 (Homo sapiens, 8505C): 1.87 µM
IC50 (Homo sapiens, 8505C): > 8 µM
EC50 (Homo sapiens, A 172): > 8 µM
IC50 (Homo sapiens, A 172): > 8 µM
EC50 (Homo sapiens, A204): 0.0389 µM
IC50 (Homo sapiens, A204): > 8 µM
EC50 (Homo sapiens, A253): > 8 µM
IC50 (Homo sapiens, A253): > 8 µM
EC50 (Homo sapiens, A549): 0.801 µM
IC50 (Homo sapiens, A549): > 8 µM
EC50 (Homo sapiens, A673): 0.568 µM
IC50 (Homo sapiens, A673): > 8 µM
EC50 (Homo sapiens, A2058): > 8 µM
IC50 (Homo sapiens, A2058): > 8 µM
EC50 (Homo sapiens, A2780): 0.201 µM
IC50 (Homo sapiens, A2780): 4.04 µM
EC50 (Homo sapiens, A-375): > 8 µM
IC50 (Homo sapiens, A-375): 8 µM
EC50 (Homo sapiens, ACHN): > 8 µM
IC50 (Homo sapiens, ACHN): > 8 µM
EC50 (Homo sapiens, AMO1): > 8 µM
IC50 (Homo sapiens, AMO1): > 8 µM
EC50 (Homo sapiens, AN3-CA): > 8 µM
IC50 (Homo sapiens, AN3-CA): > 8 µM
EC50 (Homo sapiens, ASPC1): > 8 µM
IC50 (Homo sapiens, ASPC1): > 8 µM
EC50 (Homo sapiens, AU565): > 8 µM
IC50 (Homo sapiens, AU565): > 8 µM
EC50 (Homo sapiens, AZ-521): > 8 µM
IC50 (Homo sapiens, AZ-521): > 8 µM
EC50 (Homo sapiens, BCPAP): > 8 µM
IC50 (Homo sapiens, BCPAP): > 8 µM
EC50 (Homo sapiens, BFTC-909): 3.38 µM
IC50 (Homo sapiens, BFTC-909): > 8 µM
EC50 (Homo sapiens, BGC-823): > 8 µM
IC50 (Homo sapiens, BGC-823): > 8 µM
EC50 (Homo sapiens, BL-41): > 8 µM
IC50 (Homo sapiens, BL-41): > 8 µM
EC50 (Homo sapiens, BT-474): > 8 µM
IC50 (Homo sapiens, BT-474): > 8 µM
EC50 (Homo sapiens, BT-549): > 8 µM
IC50 (Homo sapiens, BT-549): > 8 µM
EC50 (Homo sapiens, BXPC-3): > 8 µM
IC50 (Homo sapiens, BXPC-3): > 8 µM
EC50 (Homo sapiens, C2BBe1): > 8 µM
IC50 (Homo sapiens, C2BBe1): > 8 µM
EC50 (Homo sapiens, CAKI-2): > 8 µM
IC50 (Homo sapiens, CAKI-2): > 8 µM
EC50 (Homo sapiens, CAL-12T): 4.08 µM
IC50 (Homo sapiens, CAL-12T): 4.08 µM
EC50 (Homo sapiens, CAL-27): 3.83 µM
IC50 (Homo sapiens, CAL-27): > 8 µM
EC50 (Homo sapiens, CAL-85-1): > 8 µM
IC50 (Homo sapiens, CAL-85-1): > 8 µM
EC50 (Homo sapiens, CAMA-1): > 8 µM
IC50 (Homo sapiens, CAMA-1): > 8 µM
EC50 (Homo sapiens, CHL-1): > 8 µM
IC50 (Homo sapiens, CHL-1): > 8 µM
EC50 (Homo sapiens, CHP-212): 0.126 µM
IC50 (Homo sapiens, CHP-212): 1.84 µM
EC50 (Homo sapiens, COLO 201): > 8 µM
IC50 (Homo sapiens, COLO 201): > 8 µM
EC50 (Homo sapiens, COLO 205): 1.24 µM
IC50 (Homo sapiens, COLO 205): 3.46 µM
EC50 (Homo sapiens, COLO 320): > 8 µM
IC50 (Homo sapiens, COLO 320): > 8 µM
EC50 (Homo sapiens, COLO-678): 0.475 µM
IC50 (Homo sapiens, COLO-678): > 8 µM
EC50 (Homo sapiens, COLO-679): 1.03 µM
IC50 (Homo sapiens, COLO-679): > 8 µM
EC50 (Homo sapiens, COLO-741): 2.13 µM
IC50 (Homo sapiens, COLO-741): > 8 µM
EC50 (Homo sapiens, COR-L23): > 8 µM
IC50 (Homo sapiens, COR-L23): > 8 µM
EC50 (Homo sapiens, COR-L105): > 8 µM
IC50 (Homo sapiens, COR-L105): > 8 µM
EC50 (Homo sapiens, Calu-1): > 8 µM
IC50 (Homo sapiens, Calu-1): > 8 µM
EC50 (Homo sapiens, Calu-3): > 8 µM
IC50 (Homo sapiens, Calu-3): > 8 µM
EC50 (Homo sapiens, Calu-6): 1.48 µM
IC50 (Homo sapiens, Calu-6): > 8 µM
EC50 (Homo sapiens, Capan-2): > 8 µM
IC50 (Homo sapiens, Capan-2): > 8 µM
EC50 (Homo sapiens, DBTRG-05MG): 0.347 µM
IC50 (Homo sapiens, DBTRG-05MG): > 8 µM
EC50 (Homo sapiens, DMS-114): 0.112 µM
IC50 (Homo sapiens, DMS-114): > 8 µM
EC50 (Homo sapiens, DOHH-2): 0.122 µM
IC50 (Homo sapiens, DOHH-2): > 8 µM
EC50 (Homo sapiens, DOV13): > 8 µM
IC50 (Homo sapiens, DOV13): > 8 µM
EC50 (Homo sapiens, DU-145): > 8 µM
IC50 (Homo sapiens, DU-145): > 8 µM
EC50 (Homo sapiens, DV-90): 0.00743 µM
IC50 (Homo sapiens, DV-90): > 8 µM
EC50 (Homo sapiens, Daoy): > 8 µM
IC50 (Homo sapiens, Daoy): > 8 µM
EC50 (Homo sapiens, Detroit 562): > 8 µM
IC50 (Homo sapiens, Detroit 562): > 8 µM
EC50 (Homo sapiens, EBC-1): 0.44 µM
IC50 (Homo sapiens, EBC-1): > 8 µM
EC50 (Homo sapiens, EFE-184): > 8 µM
IC50 (Homo sapiens, EFE-184): > 8 µM
EC50 (Homo sapiens, EFM-19): 0.0482 µM
IC50 (Homo sapiens, EFM-19): > 8 µM
EC50 (Homo sapiens, EFO-21): > 8 µM
IC50 (Homo sapiens, EFO-21): > 8 µM
EC50 (Homo sapiens, EFO-27): > 8 µM
IC50 (Homo sapiens, EFO-27): > 8 µM
EC50 (Homo sapiens, ESS-1): 0.867 µM
IC50 (Homo sapiens, ESS-1): > 8 µM
EC50 (Homo sapiens, FaDu): > 8 µM
IC50 (Homo sapiens, FaDu): > 8 µM
EC50 (Homo sapiens, G-361): > 8 µM
IC50 (Homo sapiens, G-361): > 8 µM
EC50 (Homo sapiens, G-401): 0.00888 µM
IC50 (Homo sapiens, G-401): > 8 µM
EC50 (Homo sapiens, G-402): 0.467 µM
IC50 (Homo sapiens, G-402): 2.05 µM
EC50 (Homo sapiens, GAMG): > 8 µM
IC50 (Homo sapiens, GAMG): > 8 µM
EC50 (Homo sapiens, GCIY): > 8 µM
IC50 (Homo sapiens, GCIY): > 8 µM
EC50 (Homo sapiens, GMS-10): > 8 µM
IC50 (Homo sapiens, GMS-10): > 8 µM
EC50 (Homo sapiens, Granta-519): > 8 µM
IC50 (Homo sapiens, Granta-519): > 8 µM
EC50 (Homo sapiens, HCC44): 1.59 µM
IC50 (Homo sapiens, HCC44): > 8 µM
EC50 (Homo sapiens, HCC70): > 8 µM
IC50 (Homo sapiens, HCC70): > 8 µM
EC50 (Homo sapiens, HCC78): > 8 µM
IC50 (Homo sapiens, HCC78): > 8 µM
EC50 (Homo sapiens, HCC827): > 8 µM
IC50 (Homo sapiens, HCC827): > 8 µM
EC50 (Homo sapiens, HCC1187): > 8 µM
IC50 (Homo sapiens, HCC1187): > 8 µM
EC50 (Homo sapiens, HCC1395): > 8 µM
IC50 (Homo sapiens, HCC1395): > 8 µM
EC50 (Homo sapiens, HCC1569): > 8 µM
IC50 (Homo sapiens, HCC1569): > 8 µM
EC50 (Homo sapiens, HCC1806): > 8 µM
IC50 (Homo sapiens, HCC1806): > 8 µM
EC50 (Homo sapiens, HCC1954): > 8 µM
IC50 (Homo sapiens, HCC1954): > 8 µM
EC50 (Homo sapiens, HCC2935): > 8 µM
IC50 (Homo sapiens, HCC2935): > 8 µM
EC50 (Homo sapiens, HCC4006): > 8 µM
IC50 (Homo sapiens, HCC4006): > 8 µM
EC50 (Homo sapiens, HCT-15): 4.53 µM
IC50 (Homo sapiens, HCT-15): > 8 µM
EC50 (Homo sapiens, HCT-116): > 8 µM
IC50 (Homo sapiens, HCT-116): > 8 µM
EC50 (Homo sapiens, HDQ-P1): 0.506 µM
IC50 (Homo sapiens, HDQ-P1): > 8 µM
EC50 (Homo sapiens, HEC-1-A): > 8 µM
IC50 (Homo sapiens, HEC-1-A): > 8 µM
EC50 (Homo sapiens, HEC-1B): 0.0275 µM
IC50 (Homo sapiens, HEC-1B): > 8 µM
EC50 (Homo sapiens, HEL 92.1.7): > 8 µM
IC50 (Homo sapiens, HEL 92.1.7): > 8 µM
EC50 (Homo sapiens, HGC-27): 0.188 µM
IC50 (Homo sapiens, HGC-27): 0.534 µM
EC50 (Homo sapiens, HMCB): > 8 µM
IC50 (Homo sapiens, HMCB): > 8 µM
EC50 (Homo sapiens, HPAC): 2.67 µM
IC50 (Homo sapiens, HPAC): 2.67 µM
